According to patent publication US9150829B2, “Culture of pluripotent and multipotent cells on microcarriers” (AGENCY FOR SCIENCE, TECHNOLOY AND RESEARCH, priority 2009, dated 2015):
In brackets after ≈: the same amount, converted by molar mass.

Columns and labels:
[1] = target: MLCK (Homo sapiens, UniProt Q15746); details: cited from earlier work
[2] = target: PKC; details: read-out: Ki PKC; cited from earlier work
[3] = target: Rho kinase (ROCK); details: cited from earlier work
[4] = tested on: hESC (HES-2); test: Pluripotent marker expression in HES-2 on matrix free microcarriers with ROCK inhibitors; type: cell-based, human; details: for expression of pluripotent marker Tra-1-60 / expression of pluripotent marker Oct4: DE53
Protocol: (§1) Briefly, expression levels of extracellular antigens TRA-1-60 and intracellular transcription factor, Oct-4 in hESC populations are assessed by immunofluorescence using flow cytometry. Cells are harvested as single cell suspensions using trypsin or trypLE express, filtered through a 40 μm sieve (BD) fixed, permeabilised (Caltag Laboratories) and incubated with primary antibodies to TRA-1-60 (1:50 dilution, Chemicon, MAB4360/4381) and to Oct-4 (1:20 dilution, Santa Cruz).
(§2) Cells are then washed with 1% BSA/PBS, and incubated in the dark with a 1:500 dilution of goat α-mouse antibody FITC-conjugated (DAKO). After incubation, the cells are again washed and resuspended in 1% BSA/PBS for analysis on a FACScan (Becton Dickinson FACS Calibur). All incubations are performed at room temperature for 15 min.
A range of ROCK inhibitors (at 10 μM) were tested for their ability to allow hESC (HES-2) cell culture on matrix free cellulose DE53 microcarriers. These included fasudil, hydroxyfasudil and […] and were compared to a control (DE53 microcarriers coated in Matrigel).

[5] = target: phosphatidylinositol 3 (PI3) kinase; details: cited from earlier work
[6] = tested on: P14 kinase, PKC, MAP kinase or c-Src; details: concentration of 50 μM; cited from earlier work
[7] = tested on: hESC; test: FACS of pluripotent markers in hESC on microcarriers; type: cell-based, human
Protocol: Characterisation was performed according to our recent paper by Oh et al., 2009 (Long term microcarrier suspension cultures of human embryonic stem cells, Stem Cell Research (2009)).
as §1, §2

[8] = tested on: hESC (HES-2); test: Pluripotent marker expression in HES-2 on matrix free microcarriers with ROCK inhibitors; type: cell-based, human; details: Cytodex 1, 10 μM, passage 5
[9] = tested on: iPS IMR90 cells; test: Human iPS cell growth on uncoated DE53 microcarriers with ROCK inhibitor; type: cell-based; details: uncoated DE53, mTeSR1, 10 μM daily, 12 passages
Protocol: (§3) iPS IMR90 cells (1.6×10^5 cells/ml) were cultured in wells of a 6-well plate with 20 mg of uncoated DE53, 5 ml of serum free media mTeSR1, 4 μl of ROCK inhibitor (Y27632) [10 μM]. 80% media refreshment and addition of inhibitor was carried out daily.

[10] = tested on: hESC; test: hESC growth and passaging on uncoated microcarriers without Matrigel with ROCK inhibitor; type: cell-based, human
Protocol: Cells suspension obtained either from dispersed 2D colony culture or directly from liquid nitrogen storage (200×200 μm tissue obtained from 2D colony culture or as cell-microcarriers aggregates) are seeded at concentrations of 0.1-0.3×10^6/ml on microcarrier suspension (4 mg/ml). […] The media used are either MEF-CM or defined media. Medium is changed daily. The cultures are passaged weekly following either enzymatic treatment with collagenase or trypLE or following mechanical dissociating by repeated pipetting at a split ratio of 1:2 to 1:10. Replating of microcarrier cultures to 2D colony culture is done by placing confluent cell-microcarrier aggregates on Matrigel coated 6 cm tissue culture petridish with 8 mls of media, and culturing the cells for 7 days. Seeding of hESC on DE53, QA52, Tosoh, Cytodex 1 and Cytodex 3 microcarriers hESC were seeded on uncoated microcarriers and passaged weekly following the protocol of Example 3 and that of Oh et al., 2009 (Long term microcarrier suspension cultures of human embryonic stem cells, Stem Cell Research (2009)). All chemicals were purchased from Calbiochem. All inhibitors were diluted to their final working concentration in conditioned media prior to feeding hESC on microcarriers.

[11] = tested on: iPS IMR90 cells; test: Pluripotent marker expression in human iPS cells on DE53 microcarriers; type: cell-based; details: uncoated DE53, mTeSR1, 10 μM daily, 12 passages
Protocol: as §1, §2, §3

[12] = target: T1, PKCiota-Par6 interaction (Homo sapiens, UniProt P41743); details: read-out: IC50 (PKCiota-Par6 interaction inhibitor); cited from earlier work
T1 sequence (P41743 10-122 limits assumed): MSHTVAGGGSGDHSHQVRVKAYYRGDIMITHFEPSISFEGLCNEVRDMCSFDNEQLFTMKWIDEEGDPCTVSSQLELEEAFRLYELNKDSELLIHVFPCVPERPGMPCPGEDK

[13] = 10 μM, daily continuous addition, after 9 weeks
[14] = single dose addition (10 μM), after 6 weeks (P6)

Sequence of MLCK (Q15746 whole entry): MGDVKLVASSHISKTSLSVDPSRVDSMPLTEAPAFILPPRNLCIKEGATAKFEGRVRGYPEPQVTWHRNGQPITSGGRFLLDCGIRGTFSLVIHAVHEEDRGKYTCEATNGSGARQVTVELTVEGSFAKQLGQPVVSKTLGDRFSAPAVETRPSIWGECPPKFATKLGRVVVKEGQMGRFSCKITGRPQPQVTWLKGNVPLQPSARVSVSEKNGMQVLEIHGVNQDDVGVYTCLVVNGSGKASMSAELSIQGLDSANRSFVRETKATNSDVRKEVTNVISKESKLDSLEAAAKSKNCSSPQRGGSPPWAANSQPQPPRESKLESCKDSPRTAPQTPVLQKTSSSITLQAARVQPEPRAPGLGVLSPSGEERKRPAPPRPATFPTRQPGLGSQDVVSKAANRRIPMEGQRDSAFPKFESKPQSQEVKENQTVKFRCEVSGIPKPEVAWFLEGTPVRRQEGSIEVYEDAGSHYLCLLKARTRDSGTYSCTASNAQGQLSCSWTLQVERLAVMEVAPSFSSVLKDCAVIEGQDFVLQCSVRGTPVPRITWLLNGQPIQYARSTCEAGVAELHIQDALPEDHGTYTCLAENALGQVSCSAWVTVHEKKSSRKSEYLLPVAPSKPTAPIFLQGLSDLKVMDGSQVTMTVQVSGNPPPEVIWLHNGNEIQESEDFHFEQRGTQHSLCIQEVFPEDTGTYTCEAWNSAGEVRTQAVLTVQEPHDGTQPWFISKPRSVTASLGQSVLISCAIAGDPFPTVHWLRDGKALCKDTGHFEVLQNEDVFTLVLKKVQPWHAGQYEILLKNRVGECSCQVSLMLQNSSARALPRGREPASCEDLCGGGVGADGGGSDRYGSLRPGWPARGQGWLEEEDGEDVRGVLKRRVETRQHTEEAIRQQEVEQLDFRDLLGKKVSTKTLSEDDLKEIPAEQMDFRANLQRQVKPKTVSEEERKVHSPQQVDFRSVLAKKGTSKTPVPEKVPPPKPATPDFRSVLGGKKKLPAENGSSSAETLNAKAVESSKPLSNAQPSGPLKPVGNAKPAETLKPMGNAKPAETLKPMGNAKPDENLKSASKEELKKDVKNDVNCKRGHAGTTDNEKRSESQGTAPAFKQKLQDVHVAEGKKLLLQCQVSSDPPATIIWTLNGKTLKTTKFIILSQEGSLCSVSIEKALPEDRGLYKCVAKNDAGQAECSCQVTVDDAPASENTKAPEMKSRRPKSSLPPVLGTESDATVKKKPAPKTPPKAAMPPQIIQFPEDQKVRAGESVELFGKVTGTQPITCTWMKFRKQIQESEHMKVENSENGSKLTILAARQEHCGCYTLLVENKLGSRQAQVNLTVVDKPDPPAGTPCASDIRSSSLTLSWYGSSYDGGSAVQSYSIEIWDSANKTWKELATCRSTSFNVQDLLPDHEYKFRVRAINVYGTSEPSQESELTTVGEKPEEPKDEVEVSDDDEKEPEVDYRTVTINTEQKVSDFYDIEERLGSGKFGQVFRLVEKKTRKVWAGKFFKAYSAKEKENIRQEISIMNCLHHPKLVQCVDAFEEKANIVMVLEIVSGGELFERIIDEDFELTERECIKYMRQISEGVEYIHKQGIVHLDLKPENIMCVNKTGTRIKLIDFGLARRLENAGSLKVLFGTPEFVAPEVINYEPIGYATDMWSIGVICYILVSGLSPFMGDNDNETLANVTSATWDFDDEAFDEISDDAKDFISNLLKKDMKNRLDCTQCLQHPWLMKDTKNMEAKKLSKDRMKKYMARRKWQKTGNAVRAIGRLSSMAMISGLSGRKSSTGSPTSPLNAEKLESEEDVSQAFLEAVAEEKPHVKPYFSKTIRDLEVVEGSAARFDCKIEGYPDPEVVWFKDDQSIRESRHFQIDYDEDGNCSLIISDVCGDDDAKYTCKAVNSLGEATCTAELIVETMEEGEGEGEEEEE

In the case of `Cc1cncc2cccc(S(=O)(=O)N3CCCNCC3C)c12` (stereo in doubt) [H-1152, (S)-(+)-2-Methyl-1-[(4-methyl-5-isoquinolinyl)sulfonyl]homopiperazine], the Ki [1] is listed as 10.1 µM, the Ki [2] is listed as 9.27 µM and the Ki [3] is listed as 0.0016 µM.
For `c1ccc2c(-c3ccncc3)c[nH]c2c1` [3-(4-Pyridyl)-1H-indole], the IC50 [3] is given as 25 µM.
With `O=S(=O)(c1cccc2cnccc12)N1CCCNCC1` [HA-1077] the “expression of pluripotent marker Tra-1-60” value [4, 13] was “about 80%”, the “expression of pluripotent marker Oct4” value [4, 14] was 60% and the “expression of pluripotent marker Tra-1-60” value [4, 14] was “about 80%”.
In the case of `Cl.O=S(=O)(c1cccc2c(O)nccc12)N1CCCNCC1` [HA-1100], the “expression of pluripotent marker Tra-1-60” value [4, 13] is reported as “about 80%”, the “expression of pluripotent marker Oct4” value [4, 14] is reported as 60% and the “expression of pluripotent marker Tra-1-60” value [4, 14] is reported as about 50%.
In the case of `O=c1cc(N2CCOCC2)oc2c(-c3ccccc3)cccc12` [LY294002], the IC50 [5] is given as 1.4 µM, the “IC50 PI3 kinase activity” value [5] is given as 0.43 µg/mL (≈ 1.4 µM) and the “effect on PI3 kinase activity” value ([5]; concentration of 50 μM) is given as “specifically abolished PI3 kinase activity”. The “inhibition of other lipid and protein kinases” value [6] was “did not inhibit”.
For `O=C(Nc1ccncc1)Nc1c(Cl)cc(Cl)cc1Cl` [N-(4-Pyridyl)-N′-(2,4,6-trichlorophenyl) urea], the IC50 [3] is given as 0.2 µM.
For `C[C@@H](N)[C@H]1CC[C@H](C(=O)Nc2ccncc2)CC1` [Y-27632, (R)-(+)-trans-N-(4-Pyridyl)-4-(1-aminoethyl)-cyclohexanecarboxamide.2HCl], the “expression of pluripotent markers Oct4 and mAb 84” value ([7]; Cytodex 1, Cytodex 3, cellulose and Tosoh microcarriers without Matrigel, passage 5) was “robust expression”, the “expression of pluripotent markers Oct4, mAb 84 and Tra-1-60” value ([7]; DE53 without Matrigel, 9 weeks) was “still robust” and the “expression of pluripotent markers Oct4 and mAb 84” value ([7]; DE53 without Matrigel, over 3 weeks) was “stable expression”. For the same molecule, the “expression of pluripotent markers Oct4 and Tra-1-60” value ([7]; Tosoh polylysine microcarriers without Matrigel, passage 4) was “strongly expressed”, the “expression of Tra-1-60 (FACS)” value [8] was about 94% and the “pluripotent marker expression (Tra-1-60) versus Matrigel control cultures” value ([4]; Cytodex 1 and DE53 microcarriers, 10 μM) was “similar”. For the same molecule, the “expression of Tra-1-60 (FACS)” value ([4]; DE53, 10 μM, passage 5) was about 92%, the “expression of pluripotent marker Oct4” value [4, 14] was 60% and the “expression of pluripotent marker Tra-1-60” value [4, 14] was “about 80%”. For the same molecule, the cell density [9] was “stable over 12 passages”, the “consecutive weeks of passaging hESC” value ([10]; cellulose DE53 microcarriers, no Matrigel, 10 μM) was 9 weeks and the cell numbers ([10]; cellulose and Tosoh microcarriers, no Matrigel, passage 5) was 4 million/well. For the same molecule, the “consecutive weeks of passaging hESC” value ([10]; cellulose, Tosoh, Cytodex 1 and Cytodex 3 microcarriers, no Matrigel) was “five”, the “consecutive weeks of passaging hESC” value ([10]; spherical polylysine Tosoh 65 micron microcarriers, no Matrigel) was “six” and the “Oct4 and Tra-1-60 expression” value [11] was “stable over 12 passages”.
With Aurothioglucose the “expression of pluripotent markers Oct4 and mAb 84” value ([7]; cellulose microcarriers without Matrigel, passage 0 and 1, compared to Matrigel control) was “stable expression”, the “expression of pluripotency markers Oct4 and mAb84” value ([7]; uncoated DE53, through passage 4) was “continued strong expression” and the “expression of pluripotent marker Oct4” value [4, 13] was about 50%. For the same molecule, the “expression of pluripotent marker Tra-1-60” value [4, 13] was about 60%, the “expression of pluripotent marker Oct4” value [4, 14] was 60% and the “expression of pluripotent marker Tra-1-60” value [4, 14] was about 70%. For the same molecule, the IC50 [12] was 1 µM and the passage successfully reached ([10]; uncoated DE53) was 4 passage.
